Measurements published in paper PMC12208134, “Structure-activity relationships of 1,5-dihydro-2H-benzo[b][1,4]diazepine-2,4(3H)-diones as inhibitors of Trypanosoma cruzi” (RSC medicinal chemistry, 2025).
Converted amounts (≈) assume the structure as drawn. “And” between values parts separate entries of the source, which are not always exact repeats. Identical values can stand only once. Like-named read-outs stand apart in the source and are kept apart here.

Tests used:
[1] = system: intracellular T. cruzi amastigotes; test: T. cruzi intracellular potency assay (high content imaging); type: cell-based, Trypanosoma cruzi; design: key to Max Effect (T. cruzi): % inhibition; 0% = DMSO control, 100% = 16 μM nifurtimox control; conditions: for Emax / EC50 / IC50: Trypanosoma cruzi; for Emax / EC50 / Hill slope (T. cruzi) / Max Effect (T. cruzi) / pEC50 (T. cruzi): individual replicate; for Emax: read-out: Max Effect (T. cruzi); for EC50: read-out: pEC50 (T. cruzi) (converted); for IC50: intracellular amastigotes in Vero cells, 96 h, mean of N ≥ 3, read-out: T. cruzi pIC50 (converted)
Method: (§1) T. cruzi intracellular potency and rate-of-kill assay (high content imaging) ^1
(§2) Silvio X10/7 T. cruzi trypomastigotes were incubated at 37°C 5% CO2 with 1.6×10^7 Vero cells overnight at MOI10 in MEM media supplemented with 10% foetal calf serum (FCS). Extracellular parasites were removed by aspirating cell culture supernatant, and washing Vero monolayer with 10 ml serum-free MEM three times. Vero cells were then harvested by trypsinization and dispensed at 2×10^3 per well (50 μl in MEM/ 1% FCS) into 384 well plates pre-stamped with compounds in DMSO using automated washer/ dispenser EL406 and liquid handling software (Biotek). Plates were then incubated at 37°C in 5% CO2 for 96 h. For rate-of-kill determination, plates were incubated for 24h, 48h, 72h and 96h.
(§3) Plates were subsequently fixed with 4% formaldehyde for 20 min, permeabilised and stained with 5 μgml^-1 Hoechst 33342/ 0.1% Triton/ PBS Thimerosal 20 min. Automated imaging was performed by an Operetta high content imaging system using 20x objective (PerkinElmer). Images were analysed with an algorithm generated in Columbus (PerkinElmer) to segment Vero cell nuclei, Vero cell cytoplasm and parasite nuclei/ kinetoplasts, reporting number of amastigotes per Vero cell, percent infected Vero cells and total number of Vero cells. Compound potencies against T. cruzi parasites were calculated in IDBS Activitybase using percent infected Vero cells and Vero toxicity curves generated using number of host cells. All data was normalised to percent inhibition based on the raw data values for the 100% effect control (16 μM nifurtimox) and the 0% effect control (DMSO) on each plate at each time point. Curve fitting was carried out using a four-parameter equation as previously described. ^2 For rate-of-kill experiments the percent infected cells at each compound concentration was plotted against time.

[2] = Mouse liver microsomal intrinsic clearance; type: in vitro ADME
[3] = Human liver microsomal intrinsic clearance; type: in vitro ADME
[4] = ChromLogD pH7.4 (chromatographic hydrophobicity index), PFI, LLE; conditions: for PFI: ChromLogDpH7.4 + no. aromatic rings; for chromatographic logD: pH 7.4
From the text: [23] Alongside PFI, LLE (ligand lipophilic efficiency, T. cruzi pIC50 - ChromLogDpH7.4) was also monitored to identify changes where the impact on potency was not driven by increasing lipophilicity.

[5] = Kinetic aqueous solubility by CAD; type: physicochemical; conditions: kinetic from dmso stock
host Vero cell = test: Vero host cell toxicity in the intracellular T. cruzi assay; type: cell-based; design: key to Max Effect (Vero): % inhibition; 0% = DMSO control, 100% = 16 μM nifurtimox control; conditions: for EC50 / IC50: Chlorocebus sabaeus; for EC50: Vero; for EC50 / Max Effect (Vero) / Hill Slope (Vero) / pEC50 (Vero): individual replicate; for IC50: host Vero cell, read-out: Vero pIC50 (converted)
Method: as §1, §2, §3

[6] = kinetic, CAD, read-out: Aqueous solubility

For COc1ccccc1N1C(=O)C(NC(=O)Nc2ccc(C)cc2)C(=O)Nc2ccccc21 (stereo not drawn) [Compound 6, 1-(1-(2-methoxyphenyl)-2,4-dioxo-2,3,4,5-tetrahydro-1H-benzo[b][1,4]diazepin-3-yl)-3-(p-tolyl)urea], the Emax [1] was 79%, the EC50 [1] was 31.6 µM and the IC50 [1] was 31.6 µM. For the same compound, the “Hill slope (T. cruzi)” value [1] was 2.9 and 3.1 and 3.8 and 11.3, the “Max Effect (T. cruzi)” value [1] was 81 and 90 and 77 and the “pEC50 (T. cruzi)” value [1] was 4.6 and 4.3. For the same compound, the “MLM CLi” value ([2]; mouse, microsomes) was 2.1 mL/min/g, the “HLM CLi” value ([3]; human, microsomes) was less than 0.4 mL/min/g and the PFI [4] was 7.7. It also gave a chromatographic logD [4] of 4.7, a solubility [5] of 129 µM (≈ 55.5 µg/mL) and an EC50 (host Vero cell) greater than 50.1 µM. For the same compound, the IC50 (host Vero cell) was greater than 50.1 µM and the “Max Effect (Vero)” value (host Vero cell) was 38 and 21 and 11 and 12.

For Cc1ccc(NC(=O)NC2COc3ccccc3N(c3ccccc3)C2=O)cc1 (stereo not drawn) [Compound 13, 1-(4-oxo-5-phenyl-2,3,4,5-tetrahydrobenzo[b][1,4]oxazepin-3-yl)-3-(p-tolyl)urea], the IC50 [1] was 25.1 µM, the “Hill slope (T. cruzi)” value [1] was 2.6 and 8.4 and 3.4 and 2.9 and 1.5 and the “Max Effect (T. cruzi)” value [1] was 84 and 89 and 94 and 80 and 46. The “pEC50 (T. cruzi)” value [1] was 4.6 and 4.8 and 4.7 and 4.5 and < 4.3, the “MLM CLi” value ([2]; mouse liver microsomes) was 4.9 mL/min/g and the “HLM CLi” value ([3]; human liver microsomes) was less than 0.4 mL/min/g. For the same compound, the PFI [4] was 9.1, the chromatographic logD [4] was 6.1 and the solubility [5, 6] was 27 µM (≈ 10.5 µg/mL). The EC50 (host Vero cell) was 39.8 µM, the IC50 (host Vero cell) was 50.1 µM and the “Hill Slope (Vero)” value (host Vero cell) was 12.0 and 13.9 and 15.1 and 6.4. The “Max Effect (Vero)” value (host Vero cell) was 80 and 67 and 70 and 76 and 15 and 5.57 and the “pEC50 (Vero)” value (host Vero cell) was 4.3 and < 4.3.

Cc1ccc(NC(=O)NC2C(=O)Nc3ccccc3N(C3CCOCC3)C2=O)cc1 (stereo not drawn) [Compound 8, 1-(2,4-dioxo-1-(tetrahydro-2H-pyran-4-yl)-2,3,4,5-tetrahydro-1H-benzo[b][1,4]diazepin-3-yl)-3-(p-tolyl)urea] showed an Emax [1] of 73%, an EC50 [1] of 10 µM and an IC50 [1] of 12.6 µM. The “Hill slope (T. cruzi)” value [1] was 2.6 and 1.3 and 1.9, the “Max Effect (T. cruzi)” value [1] was 78 and 81 and the “pEC50 (T. cruzi)” value [1] was 4.9 and 4.8. For the same compound, the “MLM CLi” value ([2]; mouse liver microsomes) was 0.7 mL/min/g, the “HLM CLi” value ([3]; human liver microsomes) was less than 0.4 mL/min/g and the PFI [4] was 5.5. It also gave a chromatographic logD [4] of 3.5, a solubility [5, 6] of 380 µM (≈ 155 µg/mL) and an EC50 (host Vero cell) greater than 50.1 µM. The IC50 (host Vero cell) was greater than 50.1 µM and the “Max Effect (Vero)” value (host Vero cell) was 17 and 36 and -0.637 and 18.

With Cc1ccc(NC(=O)NC2CN(c3ccccc3)c3ccccc3NC2=O)cc1 (stereo not drawn) [Compound 10, 1-(4-oxo-1-phenyl-2,3,4,5-tetrahydro-1H-benzo[b][1,4]diazepin-3-yl)-3-(p-tolyl)urea] the Emax [1] was 86%, the IC50 [1] was 7.94 µM and the “Hill slope (T. cruzi)” value [1] was 3.5 and 12.0 and 3.2 and 0.8. The “Max Effect (T. cruzi)” value [1] was 83 and 85, the “pEC50 (T. cruzi)” value [1] was 5.0 and 4.9 and 5.3 and the “MLM CLi” value ([2]; mouse liver microsomes) was 3.5 mL/min/g. For the same compound, the “HLM CLi” value ([3]; human liver microsomes) was less than 0.4 mL/min/g, the PFI [4] was 8.7 and the chromatographic logD [4] was 5.7. For the same compound, the solubility [5, 6] was 23 µM (≈ 8.89 µg/mL), the IC50 (host Vero cell) was 12.6 µM and the “Hill Slope (Vero)” value (host Vero cell) was 3.6 and 42.2 and 4.8 and 14.3. The “Max Effect (Vero)” value (host Vero cell) was 96 and 91 and 95 and 63 and the “pEC50 (Vero)” value (host Vero cell) was 4.7 and 5.2 and 4.6 and 5.3.

For O=C(Nc1ccc(F)cc1)NC1C(=O)Nc2ccccc2N(c2ccccc2)C1=O (stereo not drawn) [Compound 3, 1-(2,4-dioxo-1-phenyl-2,3,4,5-tetrahydro-1H-benzo[b][1,4]diazepin-3-yl)-3-(4-fluorophenyl)urea], the Emax [1] was 90%, the EC50 [1] was 12.6 µM and the IC50 [1] was 10 µM. For the same compound, the “Hill slope (T. cruzi)” value [1] was 2.0 and 0.8 and 2.1 and 1.3, the “Max Effect (T. cruzi)” value [1] was 92 and 95 and 83 and the “pEC50 (T. cruzi)” value [1] was 5.1 and 4.8. The “MLM CLi” value ([2]; mouse, microsomes) was 0.6 mL/min/g, the “HLM CLi” value ([3]; human, microsomes) was less than 0.4 mL/min/g and the PFI [4] was 7.4. The chromatographic logD [4] was 4.4, the solubility [5] was 26 µM (≈ 10.5 µg/mL) and the EC50 (host Vero cell) was greater than 50.1 µM. For the same compound, the IC50 (host Vero cell) was greater than 50.1 µM and the “Max Effect (Vero)” value (host Vero cell) was -12 and 14 and 22 and 36.

In the case of CC(C)N(C(=O)CN1C(=O)C(N)C(=O)N(c2ccccc2)c2ccccc21)c1ccccc1 (single isomer, unassigned) [14-Ent 1, 2-(3-amino-2,4-dioxo-5-phenyl-2,3,4,5-tetrahydro-1H-benzo[b][1,4]diazepin-1-yl)-N-isopropyl-N-phenylacetamide], the Emax [1] is reported as 94%, the EC50 [1] is reported as 0.316 µM and the “Hill slope (T. cruzi)” value [1] is reported as 3.1 and 5.7. For the same compound, the “Max Effect (T. cruzi)” value [1] was 88, the “pEC50 (T. cruzi)” value [1] was 6.4 and the EC50 (host Vero cell) was greater than 50.1 µM. The “Max Effect (Vero)” value (host Vero cell) was 27 and 35 and the “pEC50 (Vero)” value (host Vero cell) was less than 4.3.
